Patent US20230381176A1, “A PHARMACEUTICAL COMPOSITION AND USE THEREOF FOR TREATMENT OF CANCER” (Ascentage Pharma (Suzhou) Co., Ltd., priority 2020, published 2023)

Experiments:
[1] = test system: PTK2 high ovarian PDX OV2423; experiment: PTK2 high ovarian PDX model OV2423, Compound 5 and carboplatin and/or paclitaxel; assay type: in vivo, mouse
Method: (§1) A subcutaneous xenograft tumor model of human tumor immunodeficient mice was established by cell inoculation: tumor cells in logarithmic growth phase were collected, counted, resuspended in 1×PBS, and the cell suspension concentration was adjusted to 2.5-5 ×10^7/mL. The tumor cells were inoculated subcutaneously in the right side of immunodeficient mice with a 1 mL syringe ([…]), 5-10×10^6/0.2 mL/mouse. All animal experiments were strictly in accordance with the specifications for the use and management of experimental animals in GenePharma Co., Ltd. and Suzhou Ascentage Pharma Co., Ltd. The calculation of relevant parameters refers to the Chinese NMPA “Guidelines for Non-Clinical Research Techniques of Cytotoxic Anti-tumor Drugs”.
(§2) Animal body weight and tumor size were measured twice weekly during the experiment. The state of the animal and the presence or absence of death were observed every day. The growth of tumor and the effects of treatment on normal behavior of animals were monitored routinely, specifically involving experimental animal activity, feeding and drinking, weight gain or loss, eyes, clothing hair and other abnormalities. The deaths and clinical symptoms observed during the experiment were recorded in the raw data. All operations for administration and measurement of mouse body weight and tumor volume were performed in a clean bench. According to the requirements of the experimental protocol, after the end of the last administration, plasma and tumor tissues were collected, weighed and photographed. The plasma and tumor samples were frozen at −80° C. for ready-to-use.
(§3) Tumor volume (TV) is calculated as: TV=a×b^2/2, wherein a and b represent the length and width of the tumor to be measured, respectively.
(§4) The relative tumor volume (RTV) is calculated as: RTV=Vt/V1, wherein V1 is the tumor volume at the start of grouping and administration, and Vt is the tumor volume measured on the t day after administration.
(§5) Change of body weight (%)=(measured body weight−body weight at the start of grouping)/body weight at the start of grouping×100%.
(§6) A dose of drug is considered to be severely toxic if the body weight of mouse is reduced by more than 20% or the number of drug-related deaths exceeds 20%.
(§7) According to the description by Clarke R., Issues in experimental design and endpoint analysis in the study of experimental cytotoxic agents in vivo in breast cancer and other models [J]. Breast Cancer Research & Treatment, 1997, 46(2-3): 255-278, synergy analysis was evaluated using the following formula: synergy factor=((A/C)×(B/C))/(AB/C); A=RTV value of drug A alone group; B=RTV value of drug B alone group; C=RTV value of the solvent control group, and AB=RTV value of the A and B combination group.
(§8) Use of mRECIST (Gao et al., 2015) measured tumor responses included stable disease (SD), partial tumor regression (PR), and complete regression (CR), determined by comparing tumor volume change at day t to its baseline: tumor volume change (%)=(Vt−V1)/V1. The BestResponse was the minimum value of tumor volume change (%) for t≥10. For each time t, the average of tumor volume changes from t=1 to t was also calculated. BestAvgResponse was defined as the minimum value of this average for t≥10. The criteria for response (mRECIST) were adapted from RECIST criteria (Gao et al., 2015; Therasse et al., 2000) and defined as follows: mCR, BestResponse<−95% and BestAvg Response<−40%; mPR, BestResponse<−50% and BestAvgResponse<−20%; mSD, BestResponse<35% and BestAvgResponse<30%; mPD, not otherwise categorized. SD, PR, and CR were considered responders and used to calculate response rate (%). […] Body weight of animals were monitored simultaneously. The change in body weight was calculated based on the animal weight of the first day of dosing (day 1). Tumor volume and changes in body weight (%) were represented as the mean±standard error of the mean (SEM).

ovarian PDX OV1658 = experiment: Ovarian PDX model OV1658, Compound 5 and carboplatin and/or paclitaxel; assay type: in vivo, mouse
Method: as §1, §2, §3, §4, §5, §6, §7, §8

[2] = test system: PTK2 high ovarian PDX OV1385; experiment: PTK2 high ovarian PDX model OV1385, Compound 5 and carboplatin and/or paclitaxel; assay type: in vivo, mouse
Method: as §1, §2, §3, §4, §5, §6, §7, §8

[3] = test system: PTK2 high ovarian PDX OV2018; experiment: PTK2 high ovarian PDX model OV2018, Compound 5 and paclitaxel; assay type: in vivo, mouse
Method: as §1, §2, §3, §4, §5, §6, §7, §8

[4] = test system: OVCAR3 s.c. ovarian xenograft; assay type: in vivo
Method: as §1, §2, §3, §4, §5, §6, §7, §8

[5] = test system: OVCAR3 s.c. ovarian xenograft; experiment: OVCAR3 s.c. ovarian xenograft model, overcoming resistance to paclitaxel / paclitaxel and carboplatin; assay type: in vivo, mouse
Method: as §1
as §2, with “All operations for administration and measurement of mouse body weight and tumor volume were performed in a clean bench. According to the requirements of the experimental protocol, after the end of the last administration, plasma and tumor tissues were collected, weighed and photographed.” left out
as §3, §4
Change of body weight (%)=(measured body weight−body weight at the start of grouping)/body weight at the start of grouping×100%. […]
Use of mRECIST (Gao et al., 2015) measured tumor responses included stable disease (SD), partial tumor regression (PR), and complete regression (CR), determined by comparing tumor volume change at day t to its baseline: tumor volume change (%)=(Vt−V1)/V1. […]

A549 NSCLC xenograft = experiment: s.c. A549 NSCLC lung cancer model, Compound 5 and panobinostat; assay type: in vivo, mouse; conditions: Compound 5 100 mg/kg orally once per day, panobinostat 3 mg/kg i.p. 5 days then 2 days break, 14 days
[6] = Compound 5 50 mg/kg orally once per day, carboplatin 30 mg/kg i.p. once a week, paclitaxel 10 mg/kg i.v. once a week, 28 days
[7] = Compound 5 50 mg/kg orally once per day, carboplatin 30 mg/kg i.p. once a week, paclitaxel 10 mg/kg i.v. once a week, 19 days
[8] = best response, animals per class
[9] = Compound 5 50 mg/kg orally once per day, carboplatin 30 mg/kg i.p. once a week, paclitaxel 10 mg/kg i.v. once a week, 35 days
[10] = Compound 5 50 mg/kg orally once per day, paclitaxel 10 mg/kg i.v. once a week, 35 days
[11] = Compound 5 100 mg/kg orally once per day, paclitaxel 10 mg/kg i.v. once a week, carboplatin 30 mg/kg i.v. once a week

## CC(=O)O[C@H]1C(=O)[C@@]2(C)[C@H]([C@H](OC(=O)c3ccccc3)[C@]3(O)C[C@H](OC(=O)[C@H](O)[C@@H](NC(=O)c4ccccc4)c4ccccc4)C(C)=C1C3(C)C)[C@]1(OC(C)=O)CO[C@@H]1C[C@@H]2O [Paclitaxel, paclitaxel]
[1]; [6]
  RTV on Day 28 after administration (mean ± standard error): 9.54 ± 1.73
  T/C on Day 28 after administration (%): 50.80%
[1]; animals per class
  mRECIST: 2/2 PD
[1]; mouse, in vivo
  antitumor activity (conclusion in words): moderate antitumor activity
Ovarian PDX OV1658; [7]
  RTV on Day 19 after administration (mean ± standard error): 11.79
  T/C on Day 19 after administration (%): 86.31%
Ovarian PDX OV1658; Day 19, animals per class
  mRECIST on Day 19 after administration: 2/2 PD
Ovarian PDX OV1658; [8]
  mRECIST: 2/2 PD
Ovarian PDX OV1658; mouse, in vivo
  antitumor activity (conclusion in words): minor antitumor activity
[2]; [9]
  RTV on Day 35 after administration (mean ± standard error): 1.80 ± 0.75
  T/C on Day 35 after administration (%): 44.55%
[2]; Day 35, animals per class
  mRECIST on Day 35 after administration: 2/2 PD
[2]; [8]
  mRECIST: 2/2 PD
[2]; mouse, in vivo
  antitumor activity (conclusion in words): moderate antitumor activity
[3]; [10]
  RTV on Day 35 after administration (mean ± standard error): 2.87 ± 0.24
  T/C on Day 35 after administration (%): 118.60%
[3]; Day 35, animals per class
  mRECIST on Day 35 after administration: 2/2 PD
[3]; [8]
  mRECIST: 2/2 PD
[3]; mouse, in vivo
  antitumor activity (conclusion in words): no antitumor activity
[4]; [11]
  RTV on Day 35 after administration (mean ± standard error): 8.02 ± 1.30
  T/C on Day 35 after administration (%): 52.14%
[4]; animals per class
  mRECIST: 5/5 PD
[4]; mouse, in vivo
  antitumor activity (conclusion in words): moderate antitumor activity
[4]; proportion of animals with CR or PR
  Overall regression rate (ORR), %: 0%
[4]; proportion of animals with CR, PR or SD
  Disease control rate (DCR), %: 0%
[5]; mouse, in vivo
  DCR (%): 20%
  ORR (%): 0%
[5]; paclitaxel 10 mg/kg i.v. once a week, carboplatin 30 mg/kg i.v. once a week, Compound 5 100 mg/kg orally once per day from Day 15
  RTV on Day 56 after administration (mean ± standard error): 5.19 ± 0.62

## Cc1[nH]c2ccccc2c1CCNCc1ccc(/C=C/C(=O)NO)cc1 [panobinostat, reference compound]
A549 NSCLC xenograft
  RTV on Day 14 after administration (mean ± standard error): 2.06 ± 0.29
  T/C on Day 14 after administration (%): 57.54%
